Tests used:
Assay type in all cases: physicochemical
[1] = Study on the hygroscopicity (dynamic vapor sorption); details: 25° C. and 80% RH
Description: Model of instrument: SMSDVS Advantage dynamic vapor sorption analyzer
Test conditions: A sample (10 to 15 mg) was placed in a DVS sample pan for testing.
DVS parameters: • Temperature: 25° C. • Balance: dm/dt=0.01%/min (minimum: 10 min, maximum: 180 min) • Drying: drying for 120 min at 0% RH • Test gradient of RH (%): 10% • Test gradient range of RH (%): 0%-90%-0%

[2] = Study on the polymorphs of compound WX_1 (XRPD after treatment in solvents)
From the text: The solution was centrifuged to obtain a precipitate, which was dried and then subjected to an XRPD detection.

[3] = Solubility study at different pHs; details: 37° C.; for solubility at 4 h / solubility at 24 h: thermodynamic from solid; for Solubility 4 hrs / Solubility (24 hrs): LOQ = 0.0003 mg/mL
Description: A magnet was added to the above suspension, which was placed on a magnetic stirrer for stirring (temperature 37° C., dark). After respectively stirring for 4 hours and 24 hours, samples were taken and centrifuged, and the residual solids in the lower layers were tested by XRPD. The samples in the upper layers were filtered with a filtration membrane. The concentrations of the filtrates were determined by HPLC and the pHs were measured. After the HPLC system was equilibrated with a mobile phase, the analysis of the samples started.

[4] = aqueous buffer, pH 3.8 buffer (pH 3.80)
[5] = aqueous buffer, pH 4.5 buffer (pH 4.48)
[6] = aqueous buffer, pH 5.5 buffer (pH 5.52)
[7] = aqueous buffer, pH 6.0 buffer (pH 6.04)
[8] = simulated gastric fluid, 0.01N HCl (pH 1.99)
[9] = simulated gastric fluid, 0.1N HCl (pH 1.00)

With CC(C)c1c2cc(-c3nc(Nc4ccc(N5CCNCC5)cn4)ncc3F)ccc2nn1C.O=C(O)/C=C\C(=O)O [A crystal form of compound WX_1] the hygroscopic weight gain [1] was 1.48%, the Crystal form ([2]; acetone, 40° C. in the dark for 2 days) was “A crystal form” and the Crystal form ([2]; acetone-water (1:2), Volatilization of supernatant) was “amorphous (Volatilization)”. For the same compound, the Crystal form ([2]; ethanol, 40° C. in the dark for 2 days) was “A crystal form”, the Crystal form ([2]; ethanol-water (3:1), Volatilization of supernatant) was “amorphous (Volatilization)” and the Crystal form ([2]; ethyl acetate, 40° C. in the dark for 2 days) was “A crystal form”. For the same compound, the Crystal form ([2]; isopropanol, 40° C. in the dark for 2 days) was “A crystal form”, the Crystal form ([2]; isopropanol-water (1:1), Volatilization of supernatant) was “A crystal form” and the Crystal form ([2]; methanol, 40° C. in the dark for 2 days) was “A crystal form”. For the same compound, the Crystal form ([2]; methanol-water (3:1), 40° C. in the dark for 2 days) was “A crystal form”, the “Description of Solubility” value ([3]; 0.01N HCl (pH 1.99)) was “slightly soluble” and the “Description of Solubility” value ([3]; 0.1N HCl (pH 1.00)) was “slightly soluble”. The solubility at 4 h [3, 4] was greater than 2500 µg/mL, the solubility at 24 h [3, 4] was greater than 2500 µg/mL and the solubility at 4 h [3, 5] was greater than 2500 µg/mL. The solubility at 24 h [3, 5] was greater than 2500 µg/mL, the solubility at 4 h [3, 6] was 110 µg/mL and the solubility at 24 h [3, 6] was 138 µg/mL. For the same compound, the solubility at 4 h [3, 7] was 2 µg/mL, the solubility at 24 h [3, 7] was 2 µg/mL and the “Description of Solubility” value ([3]; pH 3.8 buffer (pH 3.80)) was “slightly soluble”. The “Description of Solubility” value ([3]; pH 4.5 buffer (pH 4.48)) was “slightly soluble”, the “Description of Solubility” value ([3]; pH 5.5 buffer (pH 5.52)) was “sparingly soluble” and the “Description of Solubility” value ([3]; pH 6.0 buffer (pH 6.04)) was “practically insoluble”. For the same compound, the “Description of Solubility” value ([3]; pH 6.8 buffer (pH 6.80)) was “practically insoluble”, the “Solubility 4 hrs” value ([3]; pH 6.8 buffer (pH 6.80)) was “<LOQ*” and the “Solubility (24 hrs)” value ([3]; pH 6.8 buffer (pH 6.80)) was “<LOQ”. For the same compound, the “Description of Solubility” value ([3]; pH 7.4 buffer (pH 7.39)) was “practically insoluble”, the “Solubility 4 hrs” value ([3]; pH 7.4 buffer (pH 7.39)) was “<LOQ” and the “Solubility (24 hrs)” value ([3]; pH 7.4 buffer (pH 7.39)) was “<LOQ”. The “Description of Solubility” value ([3]; purified water (pH 6.05)) was “slightly soluble”, the solubility at 4 h [3, 8] was greater than 2500 µg/mL and the solubility at 24 h [3, 8] was greater than 2500 µg/mL. For the same compound, the solubility at 4 h [3, 9] was greater than 2500 µg/mL, the solubility at 24 h [3, 9] was greater than 2500 µg/mL and the solubility at 4 h ([3]; purified water (pH 6.05)) was 1110 µg/mL. For the same compound, the solubility at 24 h ([3]; purified water (pH 6.05)) was 1220 µg/mL.

Reference: US10626107B2, “Crystal form, salt type of substituted 2-hydro-pyrazole derivative and preparation method therefor” (CHIA TAI TIANQING PHARMACEUTICAL GROUP CO., LTD., priority 2016, dated 2020)
